Data on ten compounds can be found in ChEMBL document CHEMBL1201862, “PubChem BioAssay data set” (2004).

Molecules are shown by their SMILES.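 The compound was tested at five concentrations on cells cultured in 96-well plates, with a 48-hour exposure period. GI50 marks 50% less growth.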 The source made the active and inactive calls. Rule as the data show it: active = GI50 up to about 1.1 µM and inactive = higher.

Some test systems named below: 786-0; A498; A549; ACHN; COLO 205; DU-145; HOP-92; IGROV-1; KM12; M14; MDA-MB-435; NCI-H226; OVCAR-4; OVCAR-5; RPMI-8226; SF-539; SK-MEL-28; SN12C; SNB-75; UO-31.
Experiment in all cases: inhibition of tumour cell growth, NCI panel, 48 h

As for `OC(c1cc(-c2ccc(Cl)cc2)nc2ccccc12)C1CCCCN1` (stereo not given), the GI50 in the assay on 786-0 was 1.93 µM (inactive); with A498, 1.82 µM (inactive); in the assay with A549, 1.84 µM (inactive); with ACHN, 1.95 µM (inactive); in the assay with COLO 205 it was 1.73 µM (inactive); with DU-145, 1.74 µM (inactive). In addition, the GI50 with HOP-92 was 3.37 µM (inactive); with IGROV-1, 1.76 µM (inactive); in the assay on KM12, 2.26 µM (inactive); in the assay with M14 it was 1.77 µM (inactive); in the assay on MDA-MB-435 it was 2.09 µM (inactive); in the assay with NCI-H226, 4.21 µM (inactive). The GI50 with OVCAR-4 is 2.28 µM (inactive); in the assay on OVCAR-5 it was 2.16 µM (inactive); in the assay on RPMI-8226, 1.37 µM (inactive); in the assay with SF-539, 1.79 µM (inactive); in the assay with SK-MEL-28, 1.87 µM (inactive); in the assay with SN12C, 1.75 µM (inactive). Further, the GI50 in the assay on SNB-75 was 2.43 µM (inactive); in the assay with UO-31, 1.15 µM (inactive).

For the compound `CN1CCN(C(=O)c2cn(Cc3cncn3Cc3ccc4c(c3)OCO4)cc2-c2cccc3ccccc23)CC1`, the GI50 in the assay with 786-0 is 20.9 µM (inactive); with A498, 0.883 µM (active); with A549, 16.9 µM (inactive); in the assay with ACHN, 9.98 µM (inactive); with COLO 205, 14.7 µM (inactive); in the assay on DU-145 it was 37.4 µM (inactive). The GI50 was 1.03 µM (active) in the assay with HOP-92; 2.85 µM (inactive) in the assay with IGROV-1; 0.782 µM (active) in the assay with KM12; 0.273 µM (active) in the assay with M14; 0.198 µM (active) in the assay with MDA-MB-435; 58.1 µM (inactive) in the assay with NCI-H226. Also, the GI50 was 22.3 µM (inactive) with OVCAR-4; 24.8 µM (inactive) in the assay with OVCAR-5; 7.05 µM (inactive) with RPMI-8226; 21.1 µM (inactive) in the assay with SF-539; 4.83 µM (inactive) in the assay with SK-MEL-28; 17.5 µM (inactive) in the assay with SN12C. Moreover, the GI50 in the assay with SNB-75 is 14.7 µM (inactive); in the assay with UO-31, 7.66 µM (inactive).

With `COc1ccc2c(c1)NC1(CCN(CCCC(=O)c3ccc(F)cc3)CC1)N=N2`, the GI50 with 786-0 is 19.3 µM (inactive); in the assay with A498, 28.4 µM (inactive); in the assay with A549, 36.4 µM (inactive); with ACHN it was 27.5 µM (inactive); in the assay with COLO 205 it was 14.5 µM (inactive); in the assay on DU-145 it was 18.5 µM (inactive). Further, the GI50 was 29.9 µM (inactive) with HOP-92; 21 µM (inactive) in the assay on IGROV-1; 20.1 µM (inactive) in the assay with KM12; 13.7 µM (inactive) in the assay on M14; 15.8 µM (inactive) in the assay on MDA-MB-435; 22 µM (inactive) in the assay on NCI-H226. Further, the GI50 with OVCAR-4 was 27.4 µM (inactive); with OVCAR-5, 23.5 µM (inactive); in the assay with RPMI-8226 it was 16.6 µM (inactive); with SF-539, 19.8 µM (inactive); in the assay on SK-MEL-28, 20 µM (inactive); in the assay with SN12C it was 21 µM (inactive). Also, the values for the GI50 in the assay on SNB-75 and with UO-31 were 15.1 µM (inactive) and 18 µM (inactive), respectively.

On to `COc1cc(OC)cc(Oc2nc3ccccc3nc2C(F)(F)F)c1`, for which the GI50 in the assay with 786-0 was > 100 µM (inactive); in the assay with A498 it was 22.9 µM (inactive); in the assay on A549, > 100 µM (inactive); with ACHN, > 100 µM (inactive); with COLO 205, > 100 µM (inactive); with DU-145, > 100 µM (inactive). Also, the GI50 in the assay with HOP-92 is 42 µM (inactive); in the assay with IGROV-1 it was 5.89 µM (inactive); in the assay on KM12, > 100 µM (inactive); in the assay with M14 it was 53.8 µM (inactive); with MDA-MB-435, 3.41 µM (inactive); in the assay on NCI-H226, > 100 µM (inactive). In addition, the GI50 in the assay with OVCAR-4 is > 100 µM (inactive); in the assay on OVCAR-5 it was 45.1 µM (inactive); with RPMI-8226 it was > 100 µM (inactive); with SF-539, 52.5 µM (inactive); with SK-MEL-28, > 100 µM (inactive); with SN12C, > 100 µM (inactive). Also, the GI50 was 21.9 µM (inactive) with SNB-75 and > 100 µM (inactive) in the assay on UO-31.

For the compound `Cc1cccc(NC2=NCCO2)c1Cl`, the GI50 in the assay with 786-0, in the assay with A498, in the assay on A549, in the assay on ACHN, in the assay with COLO 205 and in the assay on DU-145 was > 100 µM (inactive) each time. Further, the GI50 was 32.7 µM (inactive) with HOP-92; > 100 µM (inactive) in the assay with IGROV-1; > 100 µM (inactive) in the assay on KM12; > 100 µM (inactive) in the assay on M14; > 100 µM (inactive) in the assay on MDA-MB-435; > 100 µM (inactive) with NCI-H226. For the same compound, the GI50 in the assay with OVCAR-4, in the assay on OVCAR-5, with RPMI-8226, with SF-539, in the assay on SK-MEL-28 and in the assay on SN12C was > 100 µM (inactive) in each case. The GI50 with SNB-75 and in the assay on UO-31 was > 100 µM (inactive) each time.

As for `CC1(C)[C@@H]2CC[C@@]1(C)[C@@H]1O[C@@H](O[C@@H](CN)c3cc(Cl)c(OCc4ccccc4)c(OCc4ccccc4)c3)C[C@H]21`, the GI50 was 0.181 µM (active) in the assay on 786-0; 0.199 µM (active) in the assay with A498; 0.163 µM (active) in the assay with A549; 0.169 µM (active) with ACHN; 0.11 µM (active) in the assay on COLO 205; 0.191 µM (active) in the assay with DU-145. Besides, the GI50 with HOP-92 was 0.171 µM (active); with IGROV-1, 0.179 µM (active); in the assay with KM12, 0.169 µM (active); with M14, 0.164 µM (active); in the assay with MDA-MB-435 it was 0.162 µM (active); with NCI-H226, 0.184 µM (active). In addition, the GI50 is 0.162 µM (active) in the assay on OVCAR-4; 0.166 µM (active) in the assay on OVCAR-5; 0.0463 µM (active) in the assay with RPMI-8226; 0.196 µM (active) in the assay on SF-539; 0.19 µM (active) in the assay on SK-MEL-28; 0.183 µM (active) in the assay with SN12C. The results for the GI50 in the assay with SNB-75 and in the assay with UO-31 were 0.163 µM (active) and 0.173 µM (active), respectively.

Consider `Nc1nc(-c2ccccc2)c(Cl)c(-c2cc(Cl)ccc2O)n1`, for which the GI50 with 786-0 is 24.4 µM (inactive); in the assay on A498 it was 34.6 µM (inactive); in the assay with A549 it was 19.5 µM (inactive); in the assay on ACHN, 8.89 µM (inactive); in the assay on COLO 205 it was > 100 µM (inactive); in the assay with DU-145, 11.1 µM (inactive). In addition, the GI50 in the assay with HOP-92 was 39.5 µM (inactive); with IGROV-1, 19.4 µM (inactive); with KM12, 16.7 µM (inactive); in the assay on M14, > 100 µM (inactive); with MDA-MB-435 it was > 100 µM (inactive); in the assay with NCI-H226, 24.7 µM (inactive). Besides, the GI50 with OVCAR-4 is 15.3 µM (inactive); in the assay on OVCAR-5, > 60 µM (inactive); in the assay on RPMI-8226, > 86.7 µM (inactive); in the assay with SF-539, 25.1 µM (inactive); with SK-MEL-28 it was 91.2 µM (inactive); with SN12C it was 25.4 µM (inactive). In addition, the GI50 with SNB-75 was 13.7 µM (inactive); in the assay with UO-31 it was 16 µM (inactive).

Consider `CCCC(=O)NC(Nc1ccc(S(=O)(=O)Nc2nc(C)cc(C)n2)cc1)(C(F)(F)F)C(F)(F)F`, for which the GI50 in the assay with 786-0, in the assay with A498, in the assay with A549, with ACHN, with COLO 205 and with DU-145 was > 100 µM (inactive) each time. Moreover, the GI50 with HOP-92, in the assay with IGROV-1, in the assay with KM12, with M14, in the assay with MDA-MB-435 and in the assay on NCI-H226 was > 100 µM (inactive) each time. For the same compound, the GI50 in the assay on OVCAR-4, in the assay on OVCAR-5, in the assay on RPMI-8226, with SF-539, with SK-MEL-28 and in the assay with SN12C was > 100 µM (inactive) throughout. Also, the GI50 in the assay on SNB-75 and in the assay on UO-31 was > 100 µM (inactive) throughout.

Consider `Cc1ccccc1C(=O)NC(O)(C(F)(F)F)C(F)(F)F`, for which the GI50 in the assay with 786-0 was > 100 µM (inactive); with A498, > 100 µM (inactive); in the assay on A549, 82.4 µM (inactive); in the assay with ACHN, > 100 µM (inactive); with COLO 205 it was > 100 µM (inactive); in the assay with DU-145, > 100 µM (inactive). Also, the GI50 in the assay with HOP-92 is > 100 µM (inactive); in the assay with IGROV-1, > 100 µM (inactive); with KM12, 42.5 µM (inactive); with M14, > 100 µM (inactive); in the assay with MDA-MB-435, > 100 µM (inactive); in the assay on NCI-H226 it was > 100 µM (inactive). The GI50 in the assay with OVCAR-4 was 51.8 µM (inactive); in the assay with OVCAR-5, > 100 µM (inactive); with RPMI-8226 it was 49.1 µM (inactive); in the assay on SF-539 it was > 100 µM (inactive); with SK-MEL-28, > 100 µM (inactive); with SN12C, > 100 µM (inactive). Besides, the GI50 with SNB-75 was 0.0302 µM (active); with UO-31 it was 34.8 µM (inactive).

On to `CCc1nc(N)nc(N)c1-c1ccc(N(C)Cc2ccccc2)c([N+](=O)[O-])c1`, for which the GI50 is 0.0231 µM (active) in the assay on 786-0; 0.552 µM (active) in the assay on A498; < 0.01 µM (active) in the assay on A549; 0.0342 µM (active) in the assay with ACHN; 0.522 µM (active) with COLO 205; 0.215 µM (active) with DU-145. The GI50 with HOP-92 was 0.962 µM (active); in the assay with IGROV-1, 0.128 µM (active); in the assay with KM12, 0.191 µM (active); in the assay with M14, 0.064 µM (active); in the assay on MDA-MB-435 it was 0.0811 µM (active); in the assay with NCI-H226 it was 3.31 µM (inactive). Besides, the GI50 is 5.15 µM (inactive) with OVCAR-4; 8.17 µM (inactive) in the assay on OVCAR-5; 0.191 µM (active) with RPMI-8226; 0.14 µM (active) in the assay on SF-539; 4.79 µM (inactive) in the assay on SK-MEL-28; 1.34 µM (inactive) in the assay on SN12C. The GI50 in the assay on SNB-75 is 2.22 µM (inactive); in the assay with UO-31, 0.458 µM (active).
